The text below walks through data of paper PMC7956620 (Molecules, 2021).

Molecules are shown by their SMILES. Numbering of substitutions follows the chain as printed.

The subject of one series is mice. Set-up: method as in PMID 31052510. Particulars: mice ref 32; cited from earlier work.
Series [1] addresses T1, 5-HT3A receptor Y91A mutant (Homo sapiens, UniProt P46098, Y86A).
T1 construct: host or cells: Xenopus laevis oocytes injected with in vitro transcribed mRNA
T1 sequence (P46098 24-478 Y86A): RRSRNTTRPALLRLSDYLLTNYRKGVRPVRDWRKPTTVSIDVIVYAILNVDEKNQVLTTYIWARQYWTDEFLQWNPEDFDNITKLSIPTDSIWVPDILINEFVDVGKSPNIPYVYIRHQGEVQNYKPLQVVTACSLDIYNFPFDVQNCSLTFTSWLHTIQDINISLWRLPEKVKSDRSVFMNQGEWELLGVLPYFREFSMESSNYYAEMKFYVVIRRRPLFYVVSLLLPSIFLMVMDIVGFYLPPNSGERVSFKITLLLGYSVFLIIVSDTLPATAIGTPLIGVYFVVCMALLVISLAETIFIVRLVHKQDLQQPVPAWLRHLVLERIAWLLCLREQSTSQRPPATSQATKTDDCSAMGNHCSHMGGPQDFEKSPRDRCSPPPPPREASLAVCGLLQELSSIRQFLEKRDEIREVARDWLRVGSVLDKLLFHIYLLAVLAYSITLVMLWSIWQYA
The experiment in a line: two-electrode voltage clamp, Y91A mutant receptor in Xenopus oocytes. Type of series: cell-based. Particulars: 100 µM chanoclavine, read-out: Inhibition Percentage (%). Here is the method: (§1) The site-directed mutation of one or two amino acids was performed using sense and antisense primers and Pfu polymerase (QuickChange Site-Directed Mutagenesis Kit; Agilent, Santa Clara, CA, USA) and amplified by polymerase chain reaction (PCR) to increase the target domain. After removing the existing methylated cDNA using Dpn Ⅰ, the PCR products were transformed into Escherichia coli strain DH5α. The cDNA of the 5-HT3A receptor was linearized by Xho Ⅰ at the end of the multi-cloning site, followed by transcription using T7 polymerase and a transcription kit (mMESSAGE mMACHINE T7 Transcription Kit; Thermo Fisher Scientific, Waltham, MA, USA). […]
(§2) To isolate oocytes, female Xenopus laevis were put into a container filled with ice and left for about one hour. […] When the Xenopus oocytes were ready for injection, 50 ng of mRNA was injected with a nanoliter injector (Drummond Scientific, Vernon Hills, IL, USA). […]
(§3) The oocytes in which mRNA was expressed during the incubation period allowed for the estimation of channel or receptor properties for observing drug and ligand potential interactions using a two-electrode voltage clamp (OC-725C; Warner Instruments, Hamden, CT, USA) and Digidata (1322A; Molecular Devices, Sunnyvale, CA, USA). […] The voltage and current electrodes were filled with 3 M KCl (0.3–0.7 MΩ) and analyzed at a −80 mV holding potential. […]

Series [2] concerns the target T2, 5-HT3A receptor I71A mutant (Homo sapiens, UniProt P46098, I66A).
T2 construct: host or cells: Xenopus laevis oocytes injected with in vitro transcribed mRNA
T2 sequence (P46098 24-478 I66A): T1 sequence (P46098 24-478 Y86A) with I43A, A63Y
The experiment in a line: two-electrode voltage clamp, I71A mutant receptor in Xenopus oocytes. It counts as cell-based. Particulars: 100 µM chanoclavine, read-out: Inhibition Percentage (%). Here is the method: as §1, §2, §3

Series [3] addresses T3, 5-HT3A receptor N138A mutant (Homo sapiens, UniProt P46098, N133A).
T3 construct: host or cells: Xenopus laevis oocytes injected with in vitro transcribed mRNA
T3 sequence (P46098 24-478 N133A): T1 sequence (P46098 24-478 Y86A) with A63Y, N110A
The experiment in a line: two-electrode voltage clamp, N138A mutant receptor in Xenopus oocytes. It counts as cell-based. The following applies: 100 µM chanoclavine, read-out: Inhibition Percentage (%). The protocol:
as §1, §2, §3
(Two-electrode voltage clamp is typically applied to oocytes expressing channels or transporters.)

Turning to `CN[C@@H]1Cc2c[nH]c3cccc(c23)[C@H]1/C=C(\C)CO` [chanoclavine], the “toxicity (gross hematology, blood chemistry, pathology, histology)” value in the series on mice is reported as “low toxicity”. Further, the inhibition – broadly, the relative decrease from the control value, in per cent – at 100 µM in series [1] was 50.2 ± 5.1%; in series [2], 62.7 ± 3.1%; in series [3] it was -1.64 ± 6.2%.
